“Also recorded” adds a separate entry of the source.
Assays:
[1] = design: method as in earlier work; conditions: Temp 25℃, pH 7.4; cited from earlier work
[2] = Plasma protein binding, human plasma; type: in vitro ADME; conditions: mean, read-out: plasma protein binding rate (converted)
Experimental: The PPB rate in dogs was about 40% at different concentrations in the concentration range (50–400 ng/mL), and in rats it was about 75%. The PPB rate in human plasma varied greatly at different concentrations, ranging from 100% at a low drug concentration to 58% at a high drug concentration, as shown in Table 4.

[3] = design: method as in earlier work; conditions: cited from earlier work
[4] = Pharmacokinetics after repeated-dose intragastric administration in beagle dogs; type: in vivo; conditions: R-IG 2.5 mg/kg
Experimental: AUC0-∞ was 195.41 ± 90.03 and 728.57 ± 270.64 h∙ng/mL, respectively (Table 2, Figure 10). […] On the fifth and seventh days before administration, the plasma concentration (valley concentration) was mostly below the lower limit of quantification (1 ng/mL).
In vivo PK profiling in dogs: Beagle dogs (approximately 8–10 kg in weight) were purchased from Jiangsu Yadong Experimental Animal Research Institute Co. Ltd (Nanjing, China). Before the experiment, several beagle dogs were randomly divided into several groups, half males and half females in each group. Four cycles of single-dose administration experiments were carried out, and the cleaning period was 3–5 days. Repeated-dose administration was carried out after the end of four cycles of single-dose administrations and cleaning periods. According to the dosage for the rats, the dosage for the beagle dogs was converted via the body surface area method. The HY-071085 active pharmaceutical ingredients were administered with a dosage volume of 2 mL/kg body weight. The whole-blood samples were centrifuged at 8000 rpm for 5 min, and the plasma samples were separated and stored at –80 °C until the analysis.
(§1) According to the obtained plasma concentration time data, the pharmacokinetic parameters were calculated using Phoenix WinNonlin 8.1 software. The pharmacokinetic parameters—i.e., the area under the curve (AUC), mean residence time (MRT), clearance rate (Cl/F) and steady-state apparent distribution volume (Vss/F)—were calculated by the method of moments, which was estimated according to the following formulae: AUCtn=∑Ci+Ci−1ti−ti−1/2 AUC∞=AUCtn+Cm/λ AUMCtn=∑tiCi+ti−1Ci−1ti−ti−1/2 AUMC∞=AUMCtn+Ctntn/λ+1/λ^2 MRT=AUMC∞/AUC∞ Cl/F=Dose/AUC Vss/F=Cl∗MRT where Ctn is the plasma concentration of tn at the last point after administration, and the elimination rate constant was obtained by ln(concentration) time linear regression.
(§2) Due to the drug having significant individual differences in rats, it could not be uniformly fitted with a PK atrioventricular model; as such, the pharmacokinetic parameters analyzed in this study were calculated using a non-atrioventricular model. The pharmacokinetic parameters are defined as follows: Cmax is the maximum blood concentration after administration and absorption, Tmax is the time required to reach Cmax, t1/2 is the time required to eliminate half of the plasma drug concentration after the drug distribution in the body reaches equilibrium, Cl/F is the apparent clearance rate, AUC0-tn is the area under the blood concentration time curve within the dosing interval, AUC0-∞ is the area under the plasma concentration time curve from 0 to infinity, MRT is the average time that all drug molecules stay in the body, and Vss/F is the steady-state apparent distribution volume, which is the product of the clearance rate and average residence time.

[5] = Tissue distribution in rats; type: in vivo; conditions: S-IG 13 mg/kg
Experimental: The male and female rats were euthanized by femoral artery bleeding under anesthesia after the single-dose intragastric administration of HY-071085 (13 mg/kg) for 10 min, 45 min and 4 h, and the tissues were separated for the analysis of the concentration of HY-071085 in the homogenate.
Tissue distribution in rats: Rats were randomly allocated into three groups (10 rats/group) for the tissue distribution studies. These rats were sacrificed at 10 min, 45 min and 4 h after orally administering HY-071085. Fourteen organs—the heart, liver, spleen, lung, kidney, stomach, gut, muscle, fat, skin, brain, ovary (female), womb (female) and testis (male)—were removed, washed in normal saline, and dried with filter papers immediately. The organs were accurately weighed and individually homogenized with an appropriate amount of deionized water. The tissue homogenate was stored at –80 °C until analysis.

[6] = Pharmacokinetics after single-dose intravenous administration in rats; type: in vivo, Sprague Dawley rats; conditions: S-IV 3.25 mg/kg; for AUC(0-inf) / AUC / MRT / half-life: rat, plasma; for AUC: read-out: AUC0-tn
Experimental: The PK parameters after the intravenous administration of 3.25 mg/kg HY-071085 (before use, prepared with 5% DMSO + 95% normal saline mixture) are listed in Table 1.
In vivo PK profiling in the rats: Sprague Dawley rats (approximately 177–221 g in weight) were purchased from Shanghai Xipur-Bikai Experimental Animal Co., Ltd. (Shanghai, China). Before the experiment, several rats were randomly divided into several groups, half males and half females in each group, fasting but free to drink water for 12 h. The dosage of the rats was dependent on the drug pharmacology: the HY-071085 active pharmaceutical ingredients were administered with a dosage volume of 0.25 mL/100 g body weight. The whole-blood samples were centrifuged at 8000 rpm for 5 min, and the plasma samples were separated and stored at –80 °C until the analysis.
as §1, §2

[7] = Stability in rat plasma under storage conditions; type: in vitro ADME; conditions: for stability in plasma, accuracy: n=5
Experimental: The stability of HY-071085 in rat plasma was evaluated by analyzing five repeated QC samples under various storage conditions: long-term freezing (freezing at −80 °C for 30 days), repeated freezing and thawing (thawing with a 37 °C water bath after freezing at −80 °C, repeated three times), normal temperature placement (a 37 °C constant temperature water bath for 8 h), and injector placement (4 °C for 24 h).

[8] = both sexes, dog, plasma, po, 7 d

SMILES: CC1(C)OC2CC(=O)OCC23C1C/C(=N\OCCN1CCOCC1)C1(C)C3CC[C@@]2(C)[C@H](c3ccoc3)OC(=O)C3OC312 (stereo partly drawn) [HY-071085, (12S,12aS,E)-12-(furan-3-yl)-6,6,8a,12a-tetramethyl-8-((2-morpholinoethoxy)imino)dodecahydro-1H,3H-oxireno [2,3-d]pyrano [4’,3’:3,3a]isobenzofuro [5,4-f]isochromene-3,10(9aH)-dione]
- LogD [1]: 2.45
- fraction unbound at 100 ng/mL ([2]; 100 ng/mL): 0.267
- fraction unbound at 200 ng/mL ([2]; 200 ng/mL): 0.325
- fraction unbound at 400 ng/mL ([2]; 400 ng/mL): 0.384
- pKa [3]: 6.11
- plasma concentration (valley concentration) before administration ([4]; fifth and seventh days, mostly below the lower limit of quantification): < 1 ng/mL
- AUC(0-inf) [4, 8]: 729 ± 271 ng·h/mL
- CL/F at 7 d [4, 8]: 32.3 mL/min/kg
- Cmax at 7 d [4, 8]: 445 ± 135 ng/mL
- MRT at 7 d [4, 8]: 94.8 ± 8.4 min
- Tmax at 7 d [4, 8]: 16.2 ± 9 min
- half-life at 7 d [4, 8]: 64.8 ± 7.8 min
- AUC ([4]; both sexes, dog, plasma, po, 7 d, read-out: AUC0-tn): 723 ± 270 ng·h/mL
- Vd/F at 7 d ([4]; both sexes, dog, plasma, po, 7 d, read-out: Vss/F): 3.04 ± 1.19 L/kg
- concentration in the brain [5]: extremely low
- tissue distribution ([5]; 10 min, 45 min and 4 h): mainly distributed in the gastric, intestine, liver, spleen, lung and kidney tissues; also recorded: mainly distributed in most of the tissues except the brain
- AUC(0-inf) ([6]; Sprague Dawley, female rats): 684 ± 39.2 ng·h/mL
- AUC ([6]; Sprague Dawley, female rats): 682 ± 225 ng·h/mL
- AUC(0-inf) ([6]; Sprague Dawley, male rats): 740 ± 146 ng·h/mL
- MRT ([6]; Sprague Dawley, male rats): 17.4 ± 2.4 min
- AUC ([6]; Sprague Dawley, male rats): 739 ± 146 ng·h/mL
- MRT ([6]; Sprague-Dawley, female rats): 20.4 ± 3 min
- half-life ([6]; Sprague-Dawley, female rats): 20.4 ± 3 min
- half-life ([6]; Sprague-Dawley, male rats): 24 ± 6 min
- Cl/F ([6]; female rats): 79.3 ± 4.5 mL/min/kg
- Vss/F ([6]; female rats): 1.63 ± 0.17 L/kg
- Cl/F ([6]; male rats): 75 ± 11.8 mL/min/kg
- Vss/F ([6]; male rats): 1.31 ± 0.18 L/kg
- stability in plasma, accuracy ([7]; injector (24h, 4 °C), 2 ng/mL): 105.00%
- stability in plasma, accuracy ([7]; injector (24h, 4 °C), 800 ng/mL): 101.55%
- stability in plasma, accuracy ([7]; long-term freezing (−80 °C, 30 days), 2 ng/mL): 112.40%
- stability in plasma, accuracy ([7]; long-term freezing (−80 °C, 30 days), 800 ng/mL): 101.50%
- stability in rat plasma ([7]; long-term freezing, repeated freezing and thawing, 37 °C 8 h, injector 4 °C 24 h): stable
- stability in plasma, accuracy ([7]; normal temperature (8h), 2 ng/mL): 105.90%
- stability in plasma, accuracy ([7]; normal temperature (8h), 800 ng/mL): 97.70%
- stability in plasma, accuracy ([7]; repeated freeze-thaw (three times), 2 ng/mL): 97.40%
- stability in plasma, accuracy ([7]; repeated freeze-thaw (three times), 800 ng/mL): 97.33%

Reference: publication PMC9316000, “Preclinical Drug Pharmacokinetic, Tissue Distribution and Excretion Profiles of the Novel Limonin Derivate HY-071085 as an Anti-Inflammatory and Analgesic Candidate in Rats and Beagle Dogs” (Pharmaceuticals, 2022)
